The target in assay [1] is T1, FSHR (Homo sapiens, UniProt P23945).
T1 construct: expressed in transfected cells; host or cells: CHO (Cho-FSHR-LUC-1-1-43)
T1 sequence (P23945 18-695): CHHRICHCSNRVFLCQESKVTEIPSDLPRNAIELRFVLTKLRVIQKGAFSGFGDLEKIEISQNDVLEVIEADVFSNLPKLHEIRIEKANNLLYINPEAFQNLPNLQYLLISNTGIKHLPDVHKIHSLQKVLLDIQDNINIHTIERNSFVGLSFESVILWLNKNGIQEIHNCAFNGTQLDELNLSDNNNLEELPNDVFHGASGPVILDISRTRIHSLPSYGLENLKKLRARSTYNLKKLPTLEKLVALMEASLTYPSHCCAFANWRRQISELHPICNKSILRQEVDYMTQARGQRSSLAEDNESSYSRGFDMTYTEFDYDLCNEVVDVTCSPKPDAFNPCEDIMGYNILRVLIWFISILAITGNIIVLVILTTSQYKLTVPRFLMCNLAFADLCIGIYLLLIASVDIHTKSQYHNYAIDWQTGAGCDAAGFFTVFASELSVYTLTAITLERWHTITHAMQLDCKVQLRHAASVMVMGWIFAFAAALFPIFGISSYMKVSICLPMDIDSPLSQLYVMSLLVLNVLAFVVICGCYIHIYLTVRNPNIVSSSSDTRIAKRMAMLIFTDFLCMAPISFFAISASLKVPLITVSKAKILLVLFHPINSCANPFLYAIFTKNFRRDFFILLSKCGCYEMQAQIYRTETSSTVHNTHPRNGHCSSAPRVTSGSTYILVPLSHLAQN
As to the kind of experiment: EC50 of cyclic AMP production in CHO FSHR cells + EC20 FSH (Assay A). The following applies: cyclic AMP production in CHO FSHR cells + EC20 FSH (0.265 pM), HTRF. Format: cell-based. In outline:
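CHO cells expressing FSHR, stimulated 1 h at 37° C with compound plus EC20 FSH (0.265 pM final) and 200 μM IBMX. cAMP measured by HTRF (665/620 nm ratio) after 1 h at room temperature; effect expressed relative to maximum response of FSH standard.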
(In general: TR-FRET usually uses a lanthanide donor and a delayed reading to cut background.)

Assay [2] addresses T2, follicle-stimulating hormone (FSH) receptor (Rattus norvegicus, UniProt P20395).
T2 construct: endogenous in cells; host or cells: rat granulosa cells
T2 sequence (P20395 18-692): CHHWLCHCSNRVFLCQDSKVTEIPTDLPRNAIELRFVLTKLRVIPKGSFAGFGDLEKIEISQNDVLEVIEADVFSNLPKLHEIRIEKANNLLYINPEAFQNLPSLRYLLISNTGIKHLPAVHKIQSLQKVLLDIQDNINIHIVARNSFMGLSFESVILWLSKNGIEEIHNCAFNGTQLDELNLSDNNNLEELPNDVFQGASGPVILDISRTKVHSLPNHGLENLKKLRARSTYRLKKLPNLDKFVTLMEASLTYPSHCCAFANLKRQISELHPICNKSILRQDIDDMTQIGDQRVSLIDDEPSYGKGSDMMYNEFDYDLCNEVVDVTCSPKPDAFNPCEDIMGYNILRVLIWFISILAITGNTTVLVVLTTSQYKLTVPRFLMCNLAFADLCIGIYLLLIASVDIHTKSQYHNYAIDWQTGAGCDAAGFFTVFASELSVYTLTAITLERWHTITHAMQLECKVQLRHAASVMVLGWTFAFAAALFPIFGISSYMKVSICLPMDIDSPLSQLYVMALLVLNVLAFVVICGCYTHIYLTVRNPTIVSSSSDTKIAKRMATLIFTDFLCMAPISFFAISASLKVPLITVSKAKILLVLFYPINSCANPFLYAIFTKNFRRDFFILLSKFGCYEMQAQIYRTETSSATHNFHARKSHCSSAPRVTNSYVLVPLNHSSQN
The experiment in a line: Rat granulosa EC50 FSH (Assay B). It counts as cell-based. The procedure:
Example 25. Rat granulosa EC50 FSH (Assay B)
The assay was performed pursuant to the teaching of Yanofsky et al. (2006) Allosteric activation of the follicle-stimulating hormone (FSH) receptor by selective, nonpeptide agonists (JBC 281(19): 13226-13233, which is incorporated by reference in the disclosure of the invention).

EC50 data for 20 compounds are collected here from patent US10941152B2, “Pyrazole compounds as modulators of FSHR and uses thereof” (TOCOPHERX, INC., priority 2014, dated 2021).

In general, EC50 refers to the concentration giving half of the maximal effect. As for `COc1cc2c(cc1-c1cncc(C(=O)N(C)C)c1)-c1c(c(C(=O)N3CCOCC3(C)C)nn1-c1cc(Cl)cc(Cl)c1)CO2` [Compound 101, 5-(1-(3,5-dichlorophenyl)-3-(3,3-dimethylmorpholine-4-carbonyl)-7-methoxy-1,4-dihydrochromeno[4,3-c]pyrazol-8-yl)-N,N-dimethylnicotinamide], the 50% effective concentration (EC50) in assay [1] is under 10 nM; in assay [2] it was 10 to 100 nM.
On the same counts, the results for `COc1cc2c(cc1-c1cncc(C(N)=O)c1)-c1c(c(C(=O)N3CCOCC3(C)C)nn1-c1cc(Cl)cc(Cl)c1)CO2` [Compound 169] are under 10 nM and 101 to 500 nM.
The corresponding values for `COc1cc2c(cc1-c1cc(C(N)=O)c[n+]([O-])c1)-c1c(c(C(=O)N3CCOCC3(C)C)nn1-c1cc(F)cc(F)c1)CO2` [Compound 176] are under 10 nM and 10 to 100 nM.
For the compound `COc1cc2c(cc1-c1c(C)nn(CC(=O)O)c1C)-c1c(c(C(=O)N(C)C(C)(C)C)nn1-c1cc(Cl)cc(Cl)c1)CO2` [Compound 137, 2-(4-(3-(tert-butyl(methyl)carbamoyl)-1-(3,5-dichlorophenyl)-7-methoxy-1,4-dihydrochromeno[4,3-c]pyrazol-8-yl)-3,5-dimethyl-1H-pyrazol-1-yl)acetic acid], the concentration for a half-maximal effect (EC50) was under 10 nM in assay [1] and 101 to 500 nM in assay [2].
On the same counts, the results for `COc1cc2c(cc1-c1cccc(CO)c1F)-c1c(c(C(=O)N(C)C(C)(C)C)nn1-c1cc(Cl)cc(Cl)c1)CO2` [Compound 195, N-tert-butyl-1-(3,5-dichlorophenyl)-8-(2-fluoro-3-(hydroxymethyl)phenyl)-7-methoxy-N-methyl-1,4-dihydrochromeno[4,3-c]pyrazole-3-carboxamide] are 10 to 100 nM and 10 to 100 nM.
Turning to `COc1cc2c(cc1-c1ccn(C)n1)-c1c(c(C(=O)N3CC[S+]([O-])CC3(C)C)nn1-c1ccsc1)CO2` (stereo not shown) [Compound 56, (1-(thiophen-3-yl)-7-methoxy-8-(1-methyl-1H-pyrazol-3-yl)-1,4-dihydrochromeno[4,3-c]pyrazol-3-yl)(S-oxo-3,3-dimethylthiomorpholino)methanone], the results for the half-maximal effective concentration (EC50) in assay [1] and in assay [2] were 10 to 100 nM and 101 to 500 nM, respectively.
The corresponding values for `COc1cc2c(cc1-c1cnn(CC(=O)O)c1)-c1c(c(C(=O)N3CCOCC3(C)C)nn1-c1cc(F)cc(Cl)c1)CO2` [Compound 84, 2-(4-(1-(3-chloro-5-fluorophenyl)-3-(3,3-dimethylmorpholine-4-carbonyl)-7-methoxy-1,4-dihydrochromeno[4,3-c]pyrazol-8-yl)-1H-pyrazol-1-yl)acetic acid] are 10 to 100 nM and 101 to 500 nM.
The corresponding values for `COc1cc2c(cc1-c1ccn(C)n1)-c1c(c(C(=O)N3CCOCC3(C)C)nn1-c1cc(F)cc(Cl)c1)CO2` [Compound 29, (1-(3-chloro-5-fluorophenyl)-7-methoxy-8-(1-methyl-1H-pyrazol-3-yl)-1,4-dihydrochromeno[4,3-c]pyrazol-3-yl)(3,3-dimethylmorpholino)methanone] are 10 to 100 nM and 101 to 500 nM.
The corresponding values for `COc1cc2c(cc1-c1cn(CC(N)=O)nc1C)-c1c(c(C(=O)N(C)C(C)(C)C)nn1-c1cc(Cl)cc(Cl)c1)CO2` [Compound 142] are under 10 nM and 10 to 100 nM.
Consider `COc1cc2c(cc1-c1c[nH]nn1)-c1c(c(C(=O)N(C)C(C)(C)C)nn1-c1ccsc1)CO2` [Compound 194, N-tert-butyl-7-methoxy-N-methyl-1-(thiophen-3-yl)-8-(1H-1,2,3-triazol-4-yl)-1,4-dihydrochromeno[4,3-c]pyrazole-3-carboxamide], for which the EC50 was under 10 nM in assay [1] and over 500 nM in assay [2].
The corresponding values for `COc1cc(OC)cc(-n2nc(C(=O)N3CC[S+]([O-])CC3(C)C)c3c2-c2cc(-c4ccccn4)c(OC)cc2OC3)c1` (stereo not shown) [Compound 41, (1-(3,5-dimethoxyphenyl)-7-methoxy-8-(pyridin-2-yl)-1,4-dihydrochromeno[4,3-c]pyrazol-3-yl)(S-oxo-3,3-dimethylthiomorpholino)methanone] are 10 to 100 nM and 101 to 500 nM.
On the same counts, the results for `COc1cc2c(cc1-c1ccn(C)n1)-c1c(c(C(=O)N3CC[S+]([O-])CC3(C)C)nn1-c1cc(Cl)cc(Cl)c1)CO2` (stereo not shown) [Compound 5, 4-{[1-(3,5-dichlorophenyl)-7-methoxy-8-(1-methyl-1H-pyrazol-3-yl)-1H,4H-chromeno[4,3-c]pyrazol-3-yl]carbonyl}-3,3-dimethyl-1$1^4,4-thiomorpholin-1-one] are 10 to 100 nM and 101 to 500 nM.
Take `COc1cc2c(cc1-c1cnn(C(N)=O)c1)-c1c(c(C(=O)N(C)C(C)(C)C)nn1-c1cc(Cl)cc(Cl)c1)CO2` [Compound 181, N-tert-butyl-8-(1-carbamoyl-1H-pyrazol-4-yl)-1-(3,5-dichlorophenyl)-7-methoxy-N-methyl-1,4-dihydrochromeno[4,3-c]pyrazole-3-carboxamide]: the 50% effective concentration (EC50) in assay [1] was under 10 nM; in assay [2] it was 10 to 100 nM.
The corresponding values for `CONC(=O)c1cncc(-c2cc3c(cc2OC)OCc2c(C(=O)N4CCOCC4(C)C)nn(-c4cc(Cl)cc(Cl)c4)c2-3)c1` [Compound 96, 5-(1-(3,5-dichlorophenyl)-3-(3,3-dimethylmorpholine-4-carbonyl)-7-methoxy-1,4-dihydrochromeno[4,3-c]pyrazol-8-yl)-N-methoxynicotinamide] are under 10 nM and under 10 nM.
The corresponding values for `COc1cc(Cl)cc(-n2nc(C(=O)N(C)C(C)(C)C)c3c2-c2cc(-c4ccn(C)n4)c(OC)cc2OC3)c1` [Compound 32, N-tert-butyl-1-(3-chloro-5-methoxyphenyl)-7-methoxy-N-methyl-8-(1-methyl-1H-pyrazol-3-yl)-1,4-dihydrochromeno[4,3-c]pyrazole-3-carboxamide] are 10 to 100 nM and 101 to 500 nM.
With `COc1cc2c(cc1-c1cnc(N)c(C)c1)-c1c(c(C(=O)N(C)C(C)(C)C)nn1-c1cc(Cl)cc(Cl)c1)CO2` [Compound 17, 8-(6-amino-5-methylpyridin-3-yl)-N-tert-butyl-1-(3,5-dichlorophenyl)-7-methoxy-N-methyl-1,4-dihydrochromeno[4,3-c]pyrazole-3-carboxamide], the concentration for a half-maximal effect (EC50) is under 10 nM in assay [1] and 101 to 500 nM in assay [2].
On the same counts, the results for `COc1cc2c(cc1-c1cncc(C)c1)-c1c(c(C(=O)N(C)C(C)(C)C)nn1-c1ccsc1)CO2` [Compound 59, N-tert-butyl-7-methoxy-N-methyl-8-(5-methylpyridin-3-yl)-1-(thiophen-3-yl)-1,4-dihydrochromeno[4,3-c]pyrazole-3-carboxamide] are 10 to 100 nM and over 500 nM.
Turning to `COc1cc2c(cc1-c1cncc(C(N)=O)c1)-c1c(c(C(=O)N3CCC(O)CC3(C)C)nn1-c1cc(F)cc(F)c1)CO2` (stereo not shown) [Compound 162], the concentration for a half-maximal effect (EC50) in assay [1] is under 10 nM; in assay [2], 101 to 500 nM.
The corresponding values for `COc1cc(F)cc(-n2nc(C(=O)N(C)C(C)(C)C)c3c2-c2cc(-c4cncc(C(N)=O)c4)c(OC)cc2OC3)c1` [Compound 166] are under 10 nM and 101 to 500 nM.
On the same counts, the results for `COc1cc2c(cc1-c1cc(C(N)=O)ncc1F)-c1c(c(C(=O)N(C)C(C)(C)C)nn1-c1cc(F)cc(F)c1)CO2` [Compound 70, N-tert-butyl-8-(2-carbamoyl-5-fluoropyridin-4-yl)-1-(3,5-difluorophenyl)-7-methoxy-N-methyl-1,4-dihydrochromeno[4,3-c]pyrazole-3-carboxamide] are under 10 nM and 10 to 100 nM.
